According to article PMC9007901 (European journal of medicinal chemistry, 2022):
Blank lines part the entries; values can stand above or below the molecule they belong to.

How the values were obtained:
hHDAC8 = biological target: T1, hHDAC8 (Homo sapiens, UniProt Q9BY41); experiment: HDAC8 activity assay; type: biochemical
T1 sequence (Q9BY41 1-377): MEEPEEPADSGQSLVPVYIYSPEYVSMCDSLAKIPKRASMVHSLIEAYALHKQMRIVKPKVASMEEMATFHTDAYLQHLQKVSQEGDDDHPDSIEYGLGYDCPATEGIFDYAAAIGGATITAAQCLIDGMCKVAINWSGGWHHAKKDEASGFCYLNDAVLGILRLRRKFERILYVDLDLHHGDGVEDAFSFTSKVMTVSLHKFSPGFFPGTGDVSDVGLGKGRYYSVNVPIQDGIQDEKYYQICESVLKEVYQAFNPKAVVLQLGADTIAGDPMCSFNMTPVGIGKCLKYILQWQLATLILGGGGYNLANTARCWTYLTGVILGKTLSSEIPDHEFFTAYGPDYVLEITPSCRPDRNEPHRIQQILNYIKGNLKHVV

[1] = system: acetylated histone H3 in MV4–11 cells; experiment: Immunoblot for acetylated histone H3; type: cell-based; conditions: 24 h
hHDAC1 = hHDAC1 (Homo sapiens, UniProt Q13547); experiment: recombinant HDAC1 homogenous fluorescence assay
Sequence of hHDAC1 (Q13547 whole entry): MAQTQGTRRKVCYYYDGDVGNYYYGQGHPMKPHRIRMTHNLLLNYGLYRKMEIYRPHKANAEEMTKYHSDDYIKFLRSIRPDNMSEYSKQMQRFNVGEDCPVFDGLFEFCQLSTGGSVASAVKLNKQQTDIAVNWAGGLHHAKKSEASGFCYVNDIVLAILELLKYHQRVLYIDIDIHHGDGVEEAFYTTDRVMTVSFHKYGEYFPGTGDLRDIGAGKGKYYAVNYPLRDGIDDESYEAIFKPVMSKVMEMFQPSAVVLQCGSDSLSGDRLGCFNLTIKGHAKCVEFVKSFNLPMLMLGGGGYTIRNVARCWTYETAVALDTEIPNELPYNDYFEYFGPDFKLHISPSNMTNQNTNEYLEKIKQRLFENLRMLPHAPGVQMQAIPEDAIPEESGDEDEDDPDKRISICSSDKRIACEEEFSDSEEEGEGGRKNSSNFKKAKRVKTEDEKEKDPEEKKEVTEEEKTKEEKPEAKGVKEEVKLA

drHDAC10 = biological target: T2, drHDAC10 (Danio rerio, UniProt F1QCV2); experiment: drHDAC10 enzymatic in vitro assay; type: biochemical
T2 sequence (F1QCV2 1-675): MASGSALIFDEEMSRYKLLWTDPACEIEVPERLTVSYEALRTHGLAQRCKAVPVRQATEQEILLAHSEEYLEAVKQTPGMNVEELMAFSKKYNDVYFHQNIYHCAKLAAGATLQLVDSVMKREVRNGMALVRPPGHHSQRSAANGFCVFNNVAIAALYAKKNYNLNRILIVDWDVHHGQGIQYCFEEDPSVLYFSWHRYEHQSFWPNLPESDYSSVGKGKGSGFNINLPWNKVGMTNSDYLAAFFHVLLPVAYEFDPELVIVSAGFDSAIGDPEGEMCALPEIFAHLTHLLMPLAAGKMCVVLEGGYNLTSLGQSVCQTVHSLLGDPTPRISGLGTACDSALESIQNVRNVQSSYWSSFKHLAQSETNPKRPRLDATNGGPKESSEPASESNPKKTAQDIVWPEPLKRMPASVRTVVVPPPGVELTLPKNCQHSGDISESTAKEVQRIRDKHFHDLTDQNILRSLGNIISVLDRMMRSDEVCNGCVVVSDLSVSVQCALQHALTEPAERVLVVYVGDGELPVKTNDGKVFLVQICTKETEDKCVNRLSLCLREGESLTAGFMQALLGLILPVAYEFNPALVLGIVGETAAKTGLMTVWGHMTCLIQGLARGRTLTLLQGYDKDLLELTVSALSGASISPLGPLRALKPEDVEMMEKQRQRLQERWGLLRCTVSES

MV4–11 cells [2] = experiment: Cyto-ID detection of modulation of autophagy; type: cell-based; conditions: 2–15 μM, 24 h, with 10 μM chloroquine
[3] = system: SK-N-BE(2)-C neuroblastoma cells; experiment: LysoTracker assay; type: cell-based, Human; conditions: SK-N-BE(2)-C cells, 24 h
[4] = system: HDAC10 and GAPDH levels in MV4–11 cells; experiment: Immunoblot for HDAC10 and GAPDH levels; type: cell-based; conditions: 24 h
MV4–11 cells [5] = experiment: Annexin-V-FITC / PI flow cytometry; type: cell-based; conditions: 2–15 μM, 24 h
[6] = system: acetylated tubulin-α in MV4–11 cells; experiment: Immunoblot for acetylated tubulin-α; type: cell-based; conditions: 15 μM, 24 h, did not reach significance
hHDAC6 = biological target: T3, hHDAC6 (Homo sapiens, UniProt Q9UBN7); experiment: recombinant HDAC6 homogenous fluorescence assay
T3 sequence (Q9UBN7 1-1215): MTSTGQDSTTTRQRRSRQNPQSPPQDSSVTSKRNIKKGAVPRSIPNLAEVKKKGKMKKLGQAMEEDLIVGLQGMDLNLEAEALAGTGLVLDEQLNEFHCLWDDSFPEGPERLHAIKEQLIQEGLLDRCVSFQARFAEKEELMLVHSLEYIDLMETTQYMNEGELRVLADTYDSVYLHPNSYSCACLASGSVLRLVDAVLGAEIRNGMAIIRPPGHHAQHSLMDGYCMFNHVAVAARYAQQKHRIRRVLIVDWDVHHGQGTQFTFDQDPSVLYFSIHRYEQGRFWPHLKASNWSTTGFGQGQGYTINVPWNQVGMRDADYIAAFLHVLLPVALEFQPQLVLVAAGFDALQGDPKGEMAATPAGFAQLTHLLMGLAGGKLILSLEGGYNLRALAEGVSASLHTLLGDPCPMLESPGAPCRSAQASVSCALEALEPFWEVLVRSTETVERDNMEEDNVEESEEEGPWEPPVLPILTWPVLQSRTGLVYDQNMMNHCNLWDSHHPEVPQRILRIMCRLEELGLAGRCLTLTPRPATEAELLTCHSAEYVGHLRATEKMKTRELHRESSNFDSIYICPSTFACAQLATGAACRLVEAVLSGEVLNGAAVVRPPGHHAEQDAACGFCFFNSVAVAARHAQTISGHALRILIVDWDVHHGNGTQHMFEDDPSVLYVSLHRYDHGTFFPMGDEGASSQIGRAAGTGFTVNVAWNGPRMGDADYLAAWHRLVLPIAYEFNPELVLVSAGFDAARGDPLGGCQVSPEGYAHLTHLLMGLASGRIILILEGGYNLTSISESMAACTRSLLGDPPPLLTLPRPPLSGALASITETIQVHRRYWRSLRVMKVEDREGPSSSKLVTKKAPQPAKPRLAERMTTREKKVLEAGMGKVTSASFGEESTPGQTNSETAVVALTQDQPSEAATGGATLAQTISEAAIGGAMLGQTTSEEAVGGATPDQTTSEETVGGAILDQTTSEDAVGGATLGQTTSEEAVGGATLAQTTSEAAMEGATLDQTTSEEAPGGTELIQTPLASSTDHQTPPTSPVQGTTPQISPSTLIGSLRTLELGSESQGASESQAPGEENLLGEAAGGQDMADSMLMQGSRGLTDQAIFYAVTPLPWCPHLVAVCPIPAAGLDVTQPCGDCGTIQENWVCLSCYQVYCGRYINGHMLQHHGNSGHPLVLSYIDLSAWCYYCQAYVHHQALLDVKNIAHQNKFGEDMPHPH

IC50 (hHDAC8): 2500 ± 260 nM
Structure (SMILES): O=C(/C=C/C1CCN(Cc2cccc(Cl)c2)CC1)NO [10d, (E)-3-[1-(3-chlorobenzyl)piperidin-4-yl]acrylhydroxamic acid]

Structure (SMILES): Nc1ccccc1NC(=O)c1ccc(CNC(=O)OCc2cccnc2)cc1 [Entinostat (MS-275), entinostat, reference compound]
accumulation of acetylated histone H3 ([1]; 5 μM, positive control): induced a highly significant accumulation of acetylated histone H3

selectivity index (SI), hHDAC8 over drHDAC10 (hHDAC8): 94
Structure (SMILES): O=C(NO)c1ccc(CNCc2ccccc2)cc1 [4a, 4-[(benzylamino)methyl]-benzhydroxamic acid]

selectivity index (SI), hHDAC1 over drHDAC10 (hHDAC1): 417
Structure (SMILES): O=C(NO)c1ccc(CNCc2ccsc2)cc1 [4c, 4-{[(thiophen-3-ylmethyl)amino]methyl}benzhydroxamic acid]

Structure (SMILES): O=C(/C=C/C1CCN(CCc2c[nH]c3ccccc23)CC1)NO [10b, (E)-3-{1-[2-(1H-indol-3-yl)ethyl]piperidin-4-yl}acrylhydroxamic acid]
IC50 (hHDAC8): 420 ± 55 nM | drHDAC10 inhibition (in words) (drHDAC10): Potent drHDAC10 inhibition

Structure (SMILES): O=C(/C=C/C1CCN(Cc2cccc3ccccc23)CC1)NO [10c, (E)-3-[1-(naphthalen-1-ylmethyl)piperidin-4-yl]acrylhydroxamic acid]
accumulation of cyto-ID positive vesicles (MV4–11 cells [2]): significantly induced the accumulation of cyto-ID positive vesicles | expansion and acidification of the lysosomal compartment (LysoTracker DND-99) [3]: induced the expansion and acidification of the lysosomal compartment | GAPDH levels [4]: no change of GAPDH levels | HDAC10 protein levels [4]: slightly increased levels of HDAC10 | IC50 (hHDAC8): 470 ± 70 nM | accumulation of acetylated histone H3 ([1]; 2–15 μM): did not induce a significant accumulation of acetylated histone H3 | apoptosis (annexin-V-FITC / PI) (MV4–11 cells [5]): did not trigger apoptosis | drHDAC10 inhibition (in words) (drHDAC10): Potent drHDAC10 inhibition | tubulin acetylation compared to non-treated cells [6]: 36–80 fold

selectivity index (SI), hHDAC1 over drHDAC10 (hHDAC1): 85 | selectivity index (SI), hHDAC8 over drHDAC10 (hHDAC8): 30
Structure (SMILES): O=C(NO)c1ccc(CNCc2cccs2)cc1 [4b, 4-{[(thiophen-2-ylmethyl)amino]methyl}benzhydroxamic acid]

drHDAC10 inhibition (in words) (drHDAC10): Potent drHDAC10 inhibition
Structure (SMILES): O=C(/C=C/C1CCN(Cc2csc3ccccc23)CC1)NO [13a, (E)-3-{1-[benzothiophen-3-ylmethyl]piperidin-4-yl} acrylhydroxamic acid]

Structure (SMILES): Cn1cc(CN2CCC(/C=C/C(=O)NO)CC2)c2ccccc21 [13b, (E)-3-{1-[(1-methylindol-3-yl)methyl]piperidin-4-yl} acrylhydroxamic acid]
accumulation of cyto-ID positive vesicles (MV4–11 cells [2]): significantly induced the accumulation of cyto-ID positive vesicles | expansion and acidification of the lysosomal compartment (LysoTracker DND-99) [3]: induced the expansion and acidification of the lysosomal compartment | GAPDH levels [4]: no change of GAPDH levels | HDAC10 protein levels [4]: slightly increased levels of HDAC10 | accumulation of acetylated histone H3 ([1]; 2–15 μM): did not induce a significant accumulation of acetylated histone H3 | apoptosis (annexin-V-FITC / PI) (MV4–11 cells [5]): did not trigger apoptosis | drHDAC10 inhibition (in words) (drHDAC10): Potent drHDAC10 inhibition | tubulin acetylation compared to non-treated cells [6]: 36–80 fold

selectivity index (SI), hHDAC6 over drHDAC10 (hHDAC6): 9 | IC50 (hHDAC8): 2400 ± 210 nM
Structure (SMILES): CN1CCN(Cc2ccc(C(=O)NO)cc2)CC1 [6b, 4-[(N-methylpiperazin-1-yl)methyl]benzhydroxamic acid]

selectivity index (SI), hHDAC1 over drHDAC10 (hHDAC1): 1454 | selectivity index (SI), hHDAC6 over drHDAC10 (hHDAC6): 395 | IC50 (hHDAC8): 250 ± 50 nM | selectivity index (SI), hHDAC8 over drHDAC10 (hHDAC8): 23
Structure (SMILES): O=C(/C=C/C1CCN(CCc2ccccc2)CC1)NO [10a, (E)-3-(1-phenethylpiperidin-4-yl)acrylhydroxamic acid]

drHDAC10 inhibition (in words) (drHDAC10): only weak HDAC10 inhibition
Structure (SMILES): O=C(NO)c1ccc(CN2CCCCC2)cc1 [6a, 4-(piperidin-1-ylmethyl)benzhydroxamic acid]
